{
  "source": "patent US20230124862A1",
  "about": "“BISMUTH THIOL COMPOUNDS AND COMPOSITIONS AND METHODS OF TREATING MICROBIAL CO-INFECTIONS” (Microbion Corporation, priority 2020, published 2023)",
  "key": {"[1]": {"system": "N. gonorrhoeae", "conditions": "N. gonorrhoeae MMX 683 (ATCC 49226); cited from earlier work"}, "[2]": {"system": "E. coli ATCC 25922", "experiment": "Broth microdilution MIC (Example 16)"}, "[3]": {"system": "lipid synthesis in E. coli ATCC 25922", "experiment": "Macromolecular synthesis assay: lipid synthesis ([3H] glycerol)", "assay_type": "cell-based, Escherichia coli", "conditions": "control drug, concentration not given", "experimental": "Chloroform (125 μL) was then added to each reaction and vortexed, followed by the addition of 125 μl dH2O and vortexing. Reactions were centrifuged at 13,000 rpm in a microfuge for 10 min, and then 150 μl of the organic phase was transferred to a scintillation vial and allowed to dry in a fume hood for at least 1 hr."}, "[4]": {"system": "RNA synthesis in E. coli MMX 121 (K12 tolC mutant)", "assay_type": "cell-based, Escherichia coli", "conditions": "8X the MIC"}, "[5]": {"system": "RNA synthesis in E. coli ATCC 25922", "assay_type": "cell-based, Escherichia coli", "conditions": "8X the MIC"}, "[6]": {"system": "cell wall synthesis in E. coli ATCC 25922", "conditions": "8X the MIC"}, "[7]": {"system": "Gram-positive organisms (S. aureus, S. pneumoniae)", "experiment": "Broth microdilution MIC with pulmonary surfactant (Survanta)", "assay_type": "cell-based, Staphylococcus aureus, Streptococcus pneumoniae"}, "[8]": {"conditions": "Escherichia coli, ATCC25922, E. coli ATCC 25922, inoculum 1"}, "[9]": {"conditions": "Escherichia coli, ATCC25922, E. coli ATCC 25922, inoculum 2"}},
  "note": "Where two headings read alike, the source gives them in different places.",
  "data": [
    {"smiles": "CO/N=C(\\C(=O)N[C@@H]1C(=O)N2C(C(=O)O)=C(CSc3nc(=O)c(=O)[nH]n3C)CS[C@H]12)c1csc(N)n1", "note": "[Ceftriaxone]", "values": [
      {"measurement": "CLSI QC range of MIC", "setting": "[1]", "result": "(0.004-0.015) μg/mL"}
    ]},
    {"smiles": "Oc1cc(Cl)ccc1Oc1ccc(Cl)cc1Cl", "note": "[irgasan]", "values": [
      {"measurement": "MIC", "setting": "[2]; E. coli ATCC 25922, inoculum 1", "result": 0.12, "unit": "µg/mL"},
      {"measurement": "MIC", "setting": "[2]; E. coli ATCC 25922, inoculum 2", "result": 0.12, "unit": "µg/mL"},
      {"measurement": "MIC", "setting": "[2]; E. coli ATCC 25922, inoculum 3", "result": 0.12, "unit": "µg/mL"},
      {"measurement": "inhibition of lipid synthesis", "setting": "[3]", "result": 63.1, "unit": "%"}
    ]},
    {"smiles": "CO[C@H]1/C=C/O[C@@]2(C)Oc3c(C)c(O)c4c(O)c(c(/C=N/N5CCN(C)CC5)c(O)c4c3C2=O)NC(=O)/C(C)=C\\C=C\\[C@H](C)[C@H](O)[C@@H](C)[C@@H](O)[C@@H](C)[C@H](OC(C)=O)[C@@H]1C", "note": "[rifampicin]", "values": [
      {"measurement": "MIC", "setting": "[2]; Escherichia coli, ATCC25922", "result": 8, "unit": "µg/mL"},
      {"measurement": "MIC", "setting": "[2]; [8]", "result": 8, "unit": "µg/mL"},
      {"measurement": "MIC", "setting": "[2]; [9]", "result": 8, "unit": "µg/mL"},
      {"measurement": "inhibition of RNA synthesis", "setting": "[4]", "result": 91.9, "unit": "%"},
      {"measurement": "inhibition of RNA synthesis", "setting": "[5]; initial assay", "result": 88.5, "unit": "%"},
      {"measurement": "inhibition of RNA synthesis", "setting": "[5]; repeat assay", "result": 89.4, "unit": "%"}
    ]},
    {"smiles": "C[C@@H](O)[C@H]1C(=O)N2C(C(=O)O)=C(SCCN=CN)C[C@H]12", "note": "[imipenem]", "values": [
      {"measurement": "MIC", "setting": "[2]; Escherichia coli, ATCC25922", "result": 0.12, "unit": "µg/mL"},
      {"measurement": "MIC", "setting": "[2]; [8]", "result": 0.12, "unit": "µg/mL"},
      {"measurement": "MIC", "setting": "[2]; [9]", "result": 0.12, "unit": "µg/mL"},
      {"measurement": "inhibition of cell wall synthesis", "setting": "[6]", "result": 78.8, "unit": "%"},
      {"measurement": "MIC", "setting": "[7]; S. pneumoniae ATCC 49619, 0 percent Survanta", "result": "≤ 0.015", "unit": "µg/mL"},
      {"measurement": "MIC", "setting": "[7]; S. pneumoniae ATCC 49619, 1 percent Survanta", "result": 0.03, "unit": "µg/mL"},
      {"measurement": "MIC", "setting": "[7]; S. pneumoniae ATCC 49619, 2.5 percent Survanta", "result": 0.03, "unit": "µg/mL"},
      {"measurement": "MIC", "setting": "[7]; S. pneumoniae MMX 3162, 0 percent Survanta", "result": 0.25, "unit": "µg/mL"},
      {"measurement": "MIC", "setting": "[7]; S. pneumoniae MMX 3162, 1 percent Survanta", "result": 0.25, "unit": "µg/mL"},
      {"measurement": "MIC", "setting": "[7]; S. pneumoniae MMX 3162, 2.5 percent Survanta", "result": 0.25, "unit": "µg/mL"},
      {"measurement": "MIC", "setting": "[7]; S. pneumoniae MMX 3162, 5 percent Survanta", "result": 0.25, "unit": "µg/mL"},
      {"measurement": "MIC", "setting": "[7]; Staphylococcus aureus, ATCC29213, S. aureus ATCC 29213, 0 percent Survanta", "result": "≤ 0.015", "unit": "µg/mL"},
      {"measurement": "MIC", "setting": "[7]; Staphylococcus aureus, ATCC29213, S. aureus ATCC 29213, 1 percent Survanta", "result": "≤ 0.015", "unit": "µg/mL"},
      {"measurement": "MIC", "setting": "[7]; Staphylococcus aureus, ATCC29213, S. aureus ATCC 29213, 2.5 percent Survanta", "result": "≤ 0.015", "unit": "µg/mL"},
      {"measurement": "MIC", "setting": "[7]; Staphylococcus aureus, ATCC29213, S. aureus ATCC 29213, 5 percent Survanta", "result": "≤ 0.015", "unit": "µg/mL"},
      {"measurement": "MIC", "setting": "[7]; Staphylococcus aureus, ATCC29213, S. aureus ATCC 29213, 10 percent Survanta", "result": "≤ 0.015", "unit": "µg/mL"},
      {"measurement": "MIC", "setting": "[7]; Staphylococcus aureus, ATCC43300, S. aureus ATCC 43300, 0 percent Survanta", "result": 0.5, "unit": "µg/mL"}
    ]}
  ]
}
